Experimental data taken from patent publication US20250051321A1, “TRICYCLIC DERIVATIVE AND PREPARATION METHOD THEREFOR AND APPLICATION THEREOF” (SHANGHAI JEMINCARE PHARMACEUTICAL CO., LTD., priority 2021, published 2025).
Read-outs that look alike come from different tables or passages of the source.

Target: ATX (Homo sapiens (Human), UniProt Q13822)
Assay: ATX enzyme inhibition assay (Amplex UltraRed/choline oxidase/HRP, 16:0 Lyso PC substrate)
Assay type: biochemical
Procedure: All compounds were prepared as a 10 mM DMSO stock solution.
Solutions at pH 8.5 and pH 7.5 were prepared respectively with the following formulations:
All compounds, including the positive control compound, were diluted 5-fold from 10 mM to 2 mM with DMSO in the first step. The mixture was then diluted to 100 μM with 1× assay buffer.
3. Separate Detection of Compounds with 1× Assay Buffer at Two pH Values:
a) 5 μL of 10× compound diluent was added to a 384-well plate (Greiner 781209) using a motorized pipette (see the “experimental preparation” step). 5 μL of 1× assay buffer containing 5% DMSO was added to both negative and positive control wells. The plate was centrifuged at 300 rpm for 1 minute at room temperature.
b) 2× ATX ([…]) was prepared with 1× assay buffer, and 25 μL of 2× ATX was added to the plate using a motorized pipette. 25 μL of 1× assay buffer was added to the negative control wells and 25 μL of 2× ATX was added to the positive control wells. The plate was centrifuged at 300 rpm for 1 minute at room temperature.
The plate was incubated at room temperature for 10 minutes.
c) 2.5× working solution containing Amplex UltraRed reagent (125 μM), HRP (2.5 U/mL), choline oxidase (1.25 U/mL), and 16:0 Lyso PC (75 μM) was prepared with 1× assay buffer. 20 μL of 2.5× working solution was added to all reaction wells using a motorized pipette. The plate was centrifuged at 300 rpm for 1 minute at room temperature.
d) The plate was detected by SpectraMax with the following procedures: fluorescence mode; excitation at 550 nm; emission at 590 nm; kinetics; read once every 2 minutes; read continuously for 60 minutes.
The calculation formula of % inhibition (i.e., % inhibition rate) was as follows: […]
V0: X-axis is taken as 0 to 30 minutes, Y-axis is taken as fluorescence readings, and the slope corresponding to the straight line fitted by the software GraphPad Prism 8 is the initial response rate.
V0max: Average V0 of the positive control wells in the plate.
V0min: Average V0 of the negative control wells in the plate.
The IC50 of the compounds was calculated from a nonlinear regression line (dose-initial response rate) fitted by % inhibition and log value of compound concentration using the software GrahPad Prism 8.

[1] = assay buffer pH 8.5, read-out: IC50 (nM) pH 8.5
[2] = assay buffer pH 7.5, read-out: IC50 (nM) pH 7.5

Structure (SMILES)	IC50 [1] [nM]	IC50 [2] [nM]
CN(c1nc(-c2ccc(F)cc2)c(C#N)s1)c1c2c(nc3c(F)cc(N4CC5(CN(C(=O)C6COCC6O)C5)C4)cc13)C(O)CC2 (stereo not shown) [Example E20]	23.5	
CN(c1nc(-c2ccc(F)cc2)c(C#N)s1)c1c2c(nc3c(F)cc(N4CCN(CC(=O)N5CC(C)(O)C5)CC4)cc13)COC2 [Example A35]	66.8	
C[C@H]1CN(c2cc(F)c3nc4c(c(N(C)c5nc(-c6ccc(F)cc6)c(C#N)s5)c3c2)CC[C@H]4O)CCN1CC(=O)N1CC(O)C1 (single isomer, unassigned) [Example E8-b]	19.4	
CN(c1nc(-c2ccc(F)cc2)c(C#N)s1)c1c2c(nc3c(F)cc(N4CCN(CC(=O)N5CC(O)C5)CC4)cc13)C(=O)CC2 [Example E2]	3.46	
CN(c1nc(-c2ccc(F)cc2)c(C#N)s1)c1c2c(nc3c(F)cc(N4CC5(CN(CC(=O)N6CC(CO)C6)C5)C4)cc13)COC2 [Example A28]	226	
CN(c1nc(-c2ccc(F)cc2)c(C#N)s1)c1c2c(nc3c(F)cc(N4CC5(CN(C(=O)[C@@H]6CCOC6)C5)C4)cc13)CCO2 [Example C11]	61.9	132
CN(c1nc(-c2ccc(F)cc2)c(C#N)s1)c1c2c(nc3c(F)cc(N4CC5(CN(CC(=O)N6CC(C)(O)C6)C5)C4)cc13)COC2 [Example A34]	446	
CN(c1nc(-c2ccc(F)cc2)c(C#N)s1)c1c2c(nc3c(F)cc(N4CC5(CN(C(=O)C6(O)CCOC6)C5)C4)cc13)C(O)CC2 (stereo not shown) [Example E19]	20.4	
CN(c1nc(-c2ccc(F)cc2)c(C#N)s1)c1c2c(nc3c(F)cc(N4CC5(CN(C(=O)[C@@H]6COC[C@H]6O)C5)C4)cc13)[C@@H](O)CC2 (single isomer, unassigned) [Example E20-a]	18.1	
CN(c1nc(-c2ccc(F)cc2)c(C#N)s1)c1c2c(nc3c(F)cc(N4CCN(CC(=O)N5CC(F)(F)C5)CC4)cc13)CCC2 [Example A15]	134	656
CN(c1nc(-c2ccc(F)cc2)c(C#N)s1)c1c2c(nc3c(F)cc(N4CC5(CN(C(=O)C6(O)CCOCC6)C5)C4)cc13)[C@H](O)CC2 (single isomer, unassigned) [Example E15-b]	18.5	
CN(c1nc(-c2ccc(F)cc2)c(C#N)s1)c1c2c(nc3c(F)cc(N4CCN(CC(=O)N5CC(O)C5)CC4)cc13)CCCC2 [Example A27]	111	
CN(c1nc(-c2ccc(F)cc2)c(C#N)s1)c1c2c(nc3c(F)cc(N4CC5(CN(C(=O)[C@H]6COC[C@@H]6O)C5)C4)cc13)[C@H](O)CC2 (single isomer, unassigned) [Example E20-d]	29.2	
CN(c1nc(-c2ccc(F)cc2)c(C#N)s1)c1c2c(nc3c(F)cc(N4CC5(CN(C(=O)N6CCCC6)C5)C4)cc13)[C@@H](O)CC2 (single isomer, unassigned) [Example E17-a]	22.4	
CN(c1nc(-c2ccc(F)cc2)c(C#N)s1)c1c2c(nc3c(F)cc(N4CC5(CN(C(=O)[C@H]6CCOC6)C5)C4)cc13)[C@@H](O)CC2 (single isomer, unassigned) [Example E5-b]	23.7	
CN(c1nc(-c2ccc(F)cc2)c(C#N)s1)c1c2c(nc3c(F)cc(N4CC5(CN(C(=O)C6(O)CC6)C5)C4)cc13)COC2 [Example C22]	73	
CN(c1nc(-c2ccc(F)cc2)c(C#N)s1)c1c2c(nc3c(F)cc(N4CC5(CN(C(=O)[C@H]6CCOC6)C5)C4)cc13)C(=O)CC2 [Example E3]	30.7	
C[C@H]1CN(CC(=O)N2CC(O)C2)CCN1c1cc(F)c2nc3c(c(N(C)c4nc(-c5ccc(F)cc5)c(C#N)s4)c2c1)CC[C@H]3O (single isomer, unassigned) [Example E7-b]	18.9	
CN(c1nc(-c2ccc(F)cc2)c(C#N)s1)c1c2c(nc3c(F)cc(N4CC5(CN(C(=O)[C@H]6COC[C@@H]6O)C5)C4)cc13)[C@@H](O)CC2 (single isomer, unassigned) [Example E20-c]	25.7	

Structure (SMILES)	IC50 [1] [nM]	IC50 [2] [nM]
CN(c1nc(-c2ccc(F)cc2)c(C#N)s1)c1c2c(nc3c(F)cc(N4CC5(CN(C(=O)C(C)(C)O)C5)C4)cc13)[C@H](O)CC2 (single isomer, unassigned) [Example E16-b]	23	
C[C@@H]1CN(c2cc(F)c3nc4c(c(N(C)c5nc(-c6ccc(F)cc6)c(C#N)s5)c3c2)COC4)CCN1CC(=O)N1CC(O)C1 [Example A32]	94.3	
CN(c1nc(-c2ccc(F)cc2)c(C#N)s1)c1c2c(nc3c(F)cc(N4CC5(CN(C(=O)N6CCCC6)C5)C4)cc13)[C@H](O)CC2 (single isomer, unassigned) [Example E17-b]	21.5	
CN(c1nc(-c2ccc(F)cc2)c(C#N)s1)c1c2c(nc3c(F)cc(N4CCN(CC(=O)N5CC6(CCC(O)CC6)C5)CC4)cc13)CC2 [Example F5]	19.9	
C[C@H]1CN(CC(=O)N2CC(O)C2)CCN1c1cc(F)c2nc3c(c(N(C)c4nc(-c5ccc(F)cc5)c(C#N)s4)c2c1)COC3 [Example A30]	22.1	
CN(c1nc(-c2ccc(F)cc2)c(C#N)s1)c1c2c(nc3c(F)cc(N4CC5(CN(C(=O)[C@@H]6CCOC6)C5)C4)cc13)[C@H](O)CC2 (single isomer, unassigned) [Example E13-b]	20.2	
CN1CC[C@H](C(=O)N2CC3(C2)CN(c2cc(F)c4nc5c(c(N(C)c6nc(-c7ccc(F)cc7)c(C#N)s6)c4c2)CC[C@H]5O)C3)C1 (single isomer, unassigned) [Example E18-b]	37.1	
CN(c1nc(-c2ccc(F)cc2)c(C#N)s1)c1c2c(nc3c(F)cc(N4CCN(CC(=O)N5CC6(CCS(=O)(=O)CC6)C5)CC4)cc13)CC2 [Example F4]	19.6	
CN(c1nc(-c2ccc(F)cc2)c(C#N)s1)c1c2c(nc3c(F)cc(N4CCN(CC(=O)N5CC6(CCOCC6)C5)CC4)cc13)CC2 [Example F3]	60.6	
CN(c1nc(-c2ccc(F)cc2)c(C#N)s1)c1c2c(nc3c(F)cc(N4CC5(CN(C(=O)[C@@H]6CCOC6)C5)C4)cc13)C(O)CC2 (stereo partly shown) [Example E13]	23.5	
CN(c1nc(-c2ccc(F)cc2)c(C#N)s1)c1c2c(nc3c(F)cc(N4CC5(CN(CC(=O)N6CCCC6)C5)C4)cc13)C(O)CC2 (stereo not shown) [Example E11]	35.7	
C[C@@H]1CN(CC(=O)N2CC(O)C2)CCN1c1cc(F)c2nc3c(c(N(C)c4nc(-c5ccc(F)cc5)c(C#N)s4)c2c1)CC[C@@H]3O (single isomer, unassigned) [Example E6-a]	18.3	
CN(c1nc(-c2ccc(F)cc2)c(C#N)s1)c1c2c(nc3c(F)cc(N4CC5(CN(C(=O)[C@@H]6CCOC6)C5)C4)cc13)C(=O)CC2 [Example E4]	24.5	
C[C@H]1CN(c2cc(F)c3nc4c(c(N(C)c5nc(-c6ccc(F)cc6)c(C#N)s5)c3c2)COC4)CCN1CC(=O)N1CC(O)C1 [Example A33]	44.6	
CN(c1nc(-c2ccc(F)cc2)c(C#N)s1)c1c2c(nc3c(F)cc(N4CC5(CN(CC(=O)N6CC[C@H](O)C6)C5)C4)cc13)C(O)CC2 (stereo partly shown) [Example E12]	97.6	
N#Cc1cc(Br)cc(F)c1NC1=CCCC1=O [E1-2]	18.2	
CN(c1nc(-c2ccc(F)cc2)c(C#N)s1)c1c2c(nc3c(F)cc(N4CC5(CN(C(=O)C6CCOC6)C5)C4)cc13)C(O)CC2 (stereo not shown) [Example E5]	21.8	
CN(c1nc(-c2ccc(F)cc2)c(C#N)s1)c1c2c(nc3c(F)cc(N4CCN(CC(=O)NO)CC4)cc13)CC2 [Example F1]	44.9	
CN(c1nc(-c2ccc(F)cc2)c(C#N)s1)c1c2c(nc3c(F)cc(N4CCN(CC(=O)N5CC6(CC(O)C6)C5)CC4)cc13)CC2 [Example F2]	65.2	
